Among the test systems are 786-0; CAKI-1; HCT-15; HOP-92; K562; KM12; MOLT-4; Malme-3M; NCI-H460; NCI-H522; OVCAR-3; PC-3; RXF 393; SF-268; SK-MEL-28; SN12C; SNB-19; SW-620; U-251.
Holding throughout (experiment): growth of human tumour cells (NCI), 48 h

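Tested at 5 concentrations; 48 h exposure; 96-well plates; endpoints linearly interpolated, else capped at highest concentration. GI50 is the concentration that inhibits growth by half.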 Calls of active or inactive are those of the source. Rule as the data show it: active = GI50 up to about 1.1 µM and inactive = higher. Some results are limits rather than exact numbers.

Regarding `CCCCCCCCCCCCCCCCOCC(CC(F)(F)P(=O)(OCC)OCC)OC(C)=O` (configuration not stated), the GI50 is 10.8 µM (inactive) with 786-0; 16.6 µM (inactive) in the assay on CAKI-1; 5.94 µM in the assay on HCT-15; 10.3 µM (inactive) in the assay on HOP-92; 14.1 µM (inactive) in the assay with K562; 11.6 µM (inactive) with KM12. Besides, the GI50 in the assay on MOLT-4 was 28.1 µM (inactive); with Malme-3M it was 10.6 µM (inactive); in the assay on NCI-H460 it was 10.7 µM (inactive); in the assay on NCI-H522 it was 13.1 µM (inactive); in the assay with OVCAR-3, 17.5 µM (inactive); in the assay with PC-3, 13.8 µM (inactive). For the same compound, the GI50 was 23.8 µM (inactive) with RXF 393; 12.6 µM (inactive) in the assay on SF-268; 17.8 µM (inactive) with SK-MEL-28; 19.7 µM (inactive) with SN12C; 3.21 µM (inactive) in the assay on SNB-19; 14.8 µM (inactive) in the assay with SW-620. For the same compound, the GI50 with U-251 is 2.72 µM (inactive).

Consider `CC1=NN(c2ccccc2Cl)C2(C1)C(Cl)C(=O)N2c1nc2ccccc2s1` (configuration not stated), for which the GI50 in the assay on 786-0 was 31.8 µM (inactive); in the assay on CAKI-1, 50.2 µM (inactive); in the assay with HCT-15, 44.3 µM; with HOP-92 it was 88.7 µM (inactive); with K562, 37.5 µM (inactive); with KM12, 55.6 µM (inactive). Besides, the GI50 in the assay with MOLT-4 is 30 µM (inactive); in the assay with Malme-3M, 92.5 µM (inactive); in the assay on NCI-H460 it was 79.6 µM (inactive); in the assay on NCI-H522, 17.9 µM (inactive); with OVCAR-3, 17.3 µM (inactive); in the assay on PC-3 it was > 100 µM (inactive). In addition, the GI50 was 39.1 µM (inactive) with RXF 393; 64.9 µM (inactive) with SF-268; 31.8 µM (inactive) in the assay with SN12C; 52.7 µM (inactive) in the assay on SNB-19; 63.4 µM (inactive) with SW-620; 28.6 µM (inactive) in the assay on U-251.

Consider `C=C[C@H]1CN2CCc3c([nH]c4c([C@H]5CCCN5C)c(O)ccc34)[C@@H]2C[C@@H]1C[C@H]1c2[nH]c3ccccc3c2CCN1C` [STRYCHNOPENTAMINE], for which the GI50 with 786-0 was 1.43 µM (inactive); in the assay on CAKI-1 it was 1.72 µM (inactive); in the assay on HCT-15 it was 0.899 µM; with HOP-92, 1.58 µM (inactive); in the assay with K562 it was 0.422 µM (active); in the assay on KM12, 1.36 µM (inactive). The GI50 is 1.76 µM (inactive) with Malme-3M; 1.48 µM (inactive) with NCI-H460; 1.79 µM (inactive) in the assay with NCI-H522; 1.58 µM (inactive) in the assay on OVCAR-3; 1.57 µM (inactive) with PC-3; 1.04 µM (active) in the assay on RXF 393. Further, the GI50 is 1.58 µM (inactive) in the assay with SF-268; 1.76 µM (inactive) in the assay on SK-MEL-28; 1.65 µM (inactive) in the assay with SN12C; 1.95 µM (inactive) in the assay with SNB-19; 1.24 µM (inactive) in the assay on SW-620; 1.43 µM (inactive) with U-251.

Turning to `Clc1ccc(NCc2nnc(CCCCCCCCc3nnc(CNc4ccc(Cl)cc4)o3)o2)cc1`, the GI50 is > 100 µM (inactive) in the assay on 786-0; > 100 µM (inactive) with CAKI-1; > 100 µM in the assay on HCT-15; > 100 µM (inactive) in the assay on HOP-92; > 100 µM (inactive) in the assay with K562; > 100 µM (inactive) in the assay with KM12. In addition, the GI50 in the assay with MOLT-4, in the assay on Malme-3M, in the assay on NCI-H460, with NCI-H522, in the assay with OVCAR-3 and in the assay on PC-3 was > 100 µM (inactive) in each case. Moreover, the GI50 with RXF 393, in the assay on SF-268, with SN12C, with SNB-19 and with U-251 was > 100 µM (inactive) each time.

For the origin of these results see ChEMBL document CHEMBL1201862, “PubChem BioAssay data set” (2004).
